Molecules are shown by their SMILES. Like-named read-outs stand apart in the source and are kept apart here.

Assay in all cases: Determination of MIC values (BHI broth, 96 well microtiter plate)
Common to all, as to format: cell-based

In assay [1] the test system is Streptococcus pneumoniae. As to conditions: BHI broth; for MIC: Streptococcus pneumoniae, read-out: MIC S. pneu. In short, it runs like this: (§1)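 Here, each test series spans final concentrations of 25 to 0.39 µg/mL in BHI broth, with DMSO as diluent. Plates seeded at 10^5–10^6 cells/mL are kept at 37° C and approx. 7-10% CO2 for about 16 hours before growth is scored.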

In assay [2] the test system is methicillin-resistant Staphylococcus aureus (MRSA). As to conditions: BHI broth; for MIC: Staphylococcus aureus, read-out: MIC MRSA. In short, it runs like this: as §1
Assay [3] deals with vancomycin-resistant Enterococcus spp. (VRE). The note with it: BHI broth; for MIC: Enterococcus, VRE, read-out: MIC VREF. In short, it runs like this: as §1
Setting [4] is: 37° C., overnight (about 16 hours).
Where [5] appears, read: MRSA, 16 h, 37° C., overnight (about 16 hours).
[6] abbreviates: 16 h, 37° C., overnight (about 16 hours).
Where [7] appears, read: MRSA, 16 h, 37° C., about 16 hours.

With `Clc1cc(-c2c(-c3ccccc3)[nH]c3ccccc23)nc2ccccc12` [Example 353], the MIC is over 25 µg/mL in assay [1] (S. pneu, overnight 37° C.); over 25 µg/mL in assay [2] (MRSA, overnight 37° C.); over 25 µg/mL in assay [3] (VREF, overnight 37° C.).
For the compound `Brc1ccc2[nH]cc(-c3nc4ccc(I)cc4c4c3CCO4)c2c1` [Example 303], the MIC in assay [1] (S. pneu, overnight 37° C.) is under 7 µg/mL; in assay [2] (MRSA, overnight 37° C.), under 7 µg/mL; in assay [3] (VREF, overnight 37° C.) it was over 25 µg/mL.
Turning to `Clc1ccc2nc(-c3c[nH]c4ccc(Cl)cc34)ccc2c1` [Example 169], the MIC was under 7 µg/mL in assay [1] (setting [4]), under 7 µg/mL in assay [2] (setting [5]) and over 25 µg/mL in assay [3] (setting [6]).
For `OCc1cc(-c2c[nH]c3ccc(Br)cc23)nc2cc(F)ccc12` [Example 490], in assay [1] (37° C., about 16 hours), the “MIC S. pneu” value is under 7 µg/mL. The “MIC MRSA” value in assay [2] (37° C., about 16 hours) was under 7 µg/mL. Also, in assay [3] (37° C., about 16 hours), the “MIC VREF” value was over 25 µg/mL.
On to `OCc1cc(-c2c[nH]c3ccc(Br)cc23)nc2ccc(Cl)cc12` [Example 455], for which the MIC was under 7 µg/mL in assay [1] (37° C., about 16 hours) and under 7 µg/mL in assay [2] (setting [7]). Moreover, in assay [3] (37° C., about 16 hours), the “MIC VREF” value was under 7 µg/mL.
As for `Clc1ccc2c(Cl)cc(-c3c[nH]c4ccc(Br)cc34)nc2c1` [Example 460], the minimal inhibitory concentration (MIC) is under 7 µg/mL in assay [1] (37° C., about 16 hours); under 7 µg/mL in assay [2] (setting [7]); under 7 µg/mL in assay [3] (16 h, 37° C., about 16 hours).
Take `O=C(Nc1ccc(O)cc1)c1cc(-c2c[nH]c3ccc(Br)cc23)nc2ccc(I)cc12` [Example 175]: the MIC in assay [1] (setting [4]) was under 7 µg/mL; in assay [2] (setting [5]), under 7 µg/mL; in assay [3] (setting [6]), under 25 µg/mL.
Take `CC(C)(C)NC(=O)NCc1cc(-c2c[nH]c3ccc(Br)cc23)nc2cc(Cl)ccc12` [Example 521]: the minimum inhibitory concentration (MIC) in assay [1] (37° C., about 16 hours) is under 7 µg/mL; in assay [2] (setting [7]), under 7 µg/mL; in assay [3] (16 h, 37° C., about 16 hours) it was over 25 µg/mL.
Take `NCCNC(=O)c1cc(-c2c[nH]c3ccc(Br)cc23)nc2c(Cl)cccc12` [Example 318]: the MIC in assay [1] (S. pneu, overnight 37° C.) is under 7 µg/mL; in assay [2] (MRSA, overnight 37° C.), under 7 µg/mL; in assay [3] (VREF, overnight 37° C.), under 7 µg/mL.
`Cc1ccc2ccc(-c3c[nH]c4cc(F)ccc34)nc2c1` [Example 478]: the MIC in assay [1] (37° C., about 16 hours) is over 25 µg/mL; in assay [2] (setting [7]), over 25 µg/mL; in assay [3] (16 h, 37° C., about 16 hours), over 25 µg/mL.
Turning to `Cc1ccc2nc(-c3c[nH]c4ccccc34)ccc2c1` [Example 481], the MIC in assay [1] (37° C., about 16 hours) was over 25 µg/mL; in assay [2] (setting [7]) it was over 25 µg/mL; in assay [3] (16 h, 37° C., about 16 hours), over 25 µg/mL.
On to `Clc1ccc2nc(-c3c[nH]c4ccc(Br)cc34)c3c(c2c1)OCCC3` [Example 503], for which the MIC in assay [1] (37° C., about 16 hours) is under 25 µg/mL; in assay [2] (setting [7]) it was under 7 µg/mL; in assay [3] (16 h, 37° C., about 16 hours) it was over 25 µg/mL.
With `NCc1ccc(CNC(=O)c2cc(-c3c[nH]c4ccc(Cl)cc34)nc3c(Br)cccc23)cc1` [Example 231], the MIC in assay [1] (S. pneu, overnight 37° C.) was under 7 µg/mL; in assay [2] (MRSA, overnight 37° C.), under 7 µg/mL; in assay [3] (VREF, overnight 37° C.), under 7 µg/mL.
Take `NCc1ccc(CNC(=O)c2cc(-c3c[nH]c4ccc(Br)cc34)nc3ccc(I)cc23)cc1` [compound 53]: the minimum inhibitory concentration (MIC) in assay [1] (setting [4]), in assay [2] (setting [5]) and in assay [3] (setting [6]) was under 7 µg/mL in each case.
`Brc1ccc2c(CNCc3ccccc3)cc(-c3c[nH]c4ccc(Br)cc34)nc2c1` [Example 373]: the MIC in assay [1] (S. pneu, overnight 37° C.) was under 7 µg/mL; in assay [2] (MRSA, overnight 37° C.), under 7 µg/mL; in assay [3] (VREF, overnight 37° C.), under 7 µg/mL.
In the case of `Cc1[nH]c2ccc(Cl)cc2c1-c1ccc2cc(Cl)ccc2n1` [Example 384], the MIC in assay [1] (S. pneu, overnight 37° C.) was under 7 µg/mL; in assay [2] (MRSA, overnight 37° C.), under 7 µg/mL; in assay [3] (VREF, overnight 37° C.), over 25 µg/mL.
`Cn1cc(-c2cc(C(=O)NCC3CCCC(CN)C3)c3ccc(I)cc3n2)c2cc(Br)ccc21` (stereo not drawn) [Example 332]: the minimum inhibitory concentration (MIC) in assay [1] (S. pneu, overnight 37° C.) is under 7 µg/mL; in assay [2] (MRSA, overnight 37° C.) it was under 7 µg/mL; in assay [3] (VREF, overnight 37° C.) it was under 7 µg/mL.
As to `CN(C)CCN(C)C(=O)c1cc(-c2cn(C)c3ccc(Br)cc23)nc2cc(Cl)ccc12` [Example 507], the MIC in assay [1] (37° C., about 16 hours) was under 7 µg/mL; in assay [2] (setting [7]), under 7 µg/mL; in assay [3] (16 h, 37° C., about 16 hours), under 7 µg/mL.
As to `Cc1cccc2ccc(-c3c[nH]c4ccc(C#N)cc34)nc12` [Example 409], the MIC in assay [1] (37° C., about 16 hours) is over 25 µg/mL; in assay [2] (setting [7]), over 25 µg/mL; in assay [3] (16 h, 37° C., about 16 hours), over 25 µg/mL.
As for `CC(=O)Oc1cccc2[nH]cc(-c3cc(Cl)c4ccccc4n3)c12` [Example 351], the MIC in assay [1] (S. pneu, overnight 37° C.) is under 7 µg/mL; in assay [2] (MRSA, overnight 37° C.), under 7 µg/mL; in assay [3] (VREF, overnight 37° C.), over 25 µg/mL.
For `O=C(NCc1cc(-c2c[nH]c3ccc(Br)cc23)nc2cc(Cl)ccc12)NC1CCCCC1` [Example 524], the MIC was under 7 µg/mL in assay [1] (37° C., about 16 hours); under 7 µg/mL in assay [2] (setting [7]); under 7 µg/mL in assay [3] (16 h, 37° C., about 16 hours).
With `NCc1ccc(CNC(=O)c2cc(-c3c[nH]c4ccc(Br)cc34)nc3cc4c(cc23)OCO4)cc1` [Example 144], the values for the MIC in assay [1] (setting [4]), in assay [2] (setting [5]) and in assay [3] (setting [6]) were under 25 µg/mL, under 7 µg/mL and under 25 µg/mL, respectively.
Take `NCc1cc(-c2c[nH]c3ccc(Cl)cc23)nc2ccccc12` [Example 372]: the MIC in assay [1] (S. pneu, overnight 37° C.) was under 7 µg/mL; in assay [2] (MRSA, overnight 37° C.) it was under 7 µg/mL; in assay [3] (VREF, overnight 37° C.) it was under 25 µg/mL.
Take `NCc1ccc(CNC(=O)c2cc(-c3c[nH]c4ccc(Br)cc34)nc3ccc(C#CCN4CC=CCC4)cc23)cc1` [Example 241]: the MIC in assay [1] (S. pneu, overnight 37° C.) is under 7 µg/mL; in assay [2] (MRSA, overnight 37° C.), under 7 µg/mL; in assay [3] (VREF, overnight 37° C.) it was under 7 µg/mL.
As to `NCCNC(=O)c1cc(-c2c[nH]c3ccc(Br)cc23)nc2cc(F)ccc12` [Example 321], the minimal inhibitory concentration (MIC) is under 7 µg/mL in assay [1] (S. pneu, overnight 37° C.); under 7 µg/mL in assay [2] (MRSA, overnight 37° C.); under 7 µg/mL in assay [3] (VREF, overnight 37° C.).
With `NCc1ccc(CNC(=O)c2cc(-c3c[nH]c4ccc(Br)cc34)nc3c(F)cccc23)cc1` [Example 256], the MIC in assay [1] (S. pneu, overnight 37° C.) is under 7 µg/mL; in assay [2] (MRSA, overnight 37° C.), under 7 µg/mL; in assay [3] (VREF, overnight 37° C.), under 7 µg/mL.
In the case of `Brc1ccc2[nH]cc(-c3ccc4cc(I)ccc4n3)c2c1` [Example 363], the MIC in assay [1] (S. pneu, overnight 37° C.) was under 7 µg/mL; in assay [2] (MRSA, overnight 37° C.) it was under 7 µg/mL; in assay [3] (VREF, overnight 37° C.) it was under 7 µg/mL.
As to `N#Cc1ccc2[nH]cc(-c3ccc4cc(Cl)ccc4n3)c2c1` [Example 292], in assay [1] (S. pneu, overnight 37° C.), the “MIC S. pneu” value is over 25 µg/mL. Moreover, in assay [2] (MRSA, overnight 37° C.), the “MIC MRSA” value is over 25 µg/mL. Further, in assay [3] (VREF, overnight 37° C.), the “MIC VREF” value is over 25 µg/mL.
For `Cn1cc(-c2cc(C(=O)NCc3ccc(CN)cc3)c3cc(C#CCN4CCCC4)ccc3n2)c2cc(Br)ccc21` [Example 393], the MIC was under 25 µg/mL in assay [1] (S. pneu, overnight 37° C.); under 7 µg/mL in assay [2] (MRSA, overnight 37° C.); under 25 µg/mL in assay [3] (VREF, overnight 37° C.).
Take `Cc1ccc2nc(-c3c[nH]c4ccc(Br)cc34)ccc2c1` [Example 432]: the MIC in assay [1] (37° C., about 16 hours) was under 7 µg/mL; in assay [2] (setting [7]), under 7 µg/mL; in assay [3] (16 h, 37° C., about 16 hours) it was over 25 µg/mL.
In the case of `Cc1ccc2[nH]c(C)c(-c3ccc4cccc(C)c4n3)c2c1` [Example 426], the minimal inhibitory concentration (MIC) in assay [1] (37° C., about 16 hours) is under 25 µg/mL; in assay [2] (setting [7]), under 25 µg/mL; in assay [3] (16 h, 37° C., about 16 hours) it was over 25 µg/mL.
For the compound `NCC(O)CNC(=O)c1cc(-c2c[nH]c3ccc(Br)cc23)nc2ccc(C#CCN3CCCCC3)cc12` (stereo not drawn) [Example 534], the MIC in assay [1] (37° C., about 16 hours) was under 7 µg/mL; in assay [2] (setting [7]), under 7 µg/mL; in assay [3] (16 h, 37° C., about 16 hours) it was under 7 µg/mL.
`Clc1ccc2c(Cl)cc(-c3c[nH]c4ccc(Cl)cc34)nc2c1` [Example 475]: the MIC in assay [1] (37° C., about 16 hours) was under 7 µg/mL; in assay [2] (setting [7]), under 7 µg/mL; in assay [3] (16 h, 37° C., about 16 hours), under 7 µg/mL.
Take `NCCNC(=O)c1cc(-c2c[nH]c3ccc(Br)cc23)nc2ccc(C#CCN3CCSCC3)cc12` [Example 525]: the MIC in assay [1] (37° C., about 16 hours) was under 7 µg/mL; in assay [2] (setting [7]), under 7 µg/mL; in assay [3] (16 h, 37° C., about 16 hours), under 7 µg/mL.
With `Cc1[nH]c2ccccc2c1-c1ccc2cccc(C)c2n1` [Example 472], the minimum inhibitory concentration (MIC) in assay [1] (37° C., about 16 hours) is under 25 µg/mL; in assay [2] (setting [7]) it was under 25 µg/mL; in assay [3] (16 h, 37° C., about 16 hours), over 25 µg/mL.

The values are drawn from US6376670B1, “Quinoline-indole antimicrobial agents, uses and compositions related thereto” (Sepracor Inc., priority 1997, dated 2002).
